Assays:
[1] = test system: DMBA-induced hormone dependent rat mammary carcinoma; experiment: DMBA-induced hormone dependent mammary carcinoma of the rat; format: in vivo; details: 3×6.5 mg/kg body weight/week
Description: Mouse leukemia P388, hormone independent human breast cancer cell line MDA-MB 231, hormone dependent human breast cancer cell line MCF7, hormone dependent mouse mammary carcinoma MXT, DMBA induced hormone dependent rat mammary carcinoma (DMBA is dimethylbenz[a]-anthracene).
For example on the mammary cancer of the rat, which was induced by 7, 12-dimethylbenz [a]-anthracene (DMBA), with the compound of Example 18 at a dosage of 3×6.5 mg/kg body weight/week there was determined with 88% of the tumors a complete remission. In the testing on the hormone independent human mammary tumor cell line MDA-MB 231 the compounds of the invention show for example in vitro in concentrations between 10^-5 and 10^-7 moles/liter a 50% inhibition of the growth of this cell line. The inhibition of [^3 H]-thymidine incorporation is of the same order of magnitude. The compounds of the invention act on the lymphocytic leukemia P388 (mouse) for example in dosages between 10 and 50 mg/kg (intraperitoneal application).

water solubility = format: physicochemical

solubility in water (water solubility)	Compound	tumors with complete remission [1]
	NC(c1c(Cl)cc(O)cc1Cl)C(N)c1c(Cl)cc(O)cc1Cl.[Cl-].[Cl-].[Pt+2] (stereo not drawn) [Example 18, meso-1,2-bis(2,6-dichloro-4-hydroxyphenyl)-ethylenediamine-dichloro-platinum(II)]	88%
soluble in water	Diaquo-meso-1,2-bis(2,6-dichloro-4-hydroxyphenyl)-ethylene-diamine-platinum(II)-sulfate [Example 34]	

Source: patent US4730068A, “Tumor retarding (1,2-diphenyl-ethylenediamine)-platinum(II)-complexes” (Asta-Werke Aktiengesellschaft, priority 1985, dated 1988)
